Reference: ChEMBL document CHEMBL6103622 (J Med Chem, 2025)
The source made the active and inactive calls. The rule behind the calls is not given here.

How the values were obtained:
[1] = target: BDNF/NT-3 growth factors receptor (Homo sapiens) (UniProt Q16620); experiment: Inhibition of TRKB (unknown origin) at 1 uM
MC-38 [2] = experiment: Induction of apoptosis in mouse MC38 cells assessed as early apoptotic cells at 30 nM by Annexin V/PI staining based flow cytometric analysis (reference value: 1.91 %); assay type: functional
MC-38 [3] = experiment: Induction of apoptosis in mouse MC38 cells cocultured with condition medium of M2 macrophages assessed as early apoptotic cells at 100 nM by Annexin V/PI staining based flow cytometric analysis (reference value: 3.16 %); assay type: functional
[4] = MRT (0 to t) in Sprague-Dawley rat at 1 mg/kg, iv; assay type: ADME, organism-based; details: in vivo
MC-38 [5] = experiment: Antitumor activity against mouse MC38 cells allografted in C57BL/6 mouse model assessed as reduction in tumor weight at 10 to 20 mg/kg, ip administered once daily for 14 days; assay type: functional, organism-based; details: dose 10-20 mg/kg, time 14.0 day
BMDM = experiment: Induction of repolarization of M2 like macrophage into M1 phenotype in female C57BL/6 mouse BMDM cells assessed as increase in Tnf mRNA expression at 10 to 100 nM stimulated with mouse IL4/IL-13 for 24 hrs followed by compound addition and measured after 24 hrs by qPCR analysis; assay type: functional, cell-based; details: dose 10-100 nM

Chain of BDNF/NT-3 growth factors receptor (Homo sapiens) (Q16620 32-822 limits assumed): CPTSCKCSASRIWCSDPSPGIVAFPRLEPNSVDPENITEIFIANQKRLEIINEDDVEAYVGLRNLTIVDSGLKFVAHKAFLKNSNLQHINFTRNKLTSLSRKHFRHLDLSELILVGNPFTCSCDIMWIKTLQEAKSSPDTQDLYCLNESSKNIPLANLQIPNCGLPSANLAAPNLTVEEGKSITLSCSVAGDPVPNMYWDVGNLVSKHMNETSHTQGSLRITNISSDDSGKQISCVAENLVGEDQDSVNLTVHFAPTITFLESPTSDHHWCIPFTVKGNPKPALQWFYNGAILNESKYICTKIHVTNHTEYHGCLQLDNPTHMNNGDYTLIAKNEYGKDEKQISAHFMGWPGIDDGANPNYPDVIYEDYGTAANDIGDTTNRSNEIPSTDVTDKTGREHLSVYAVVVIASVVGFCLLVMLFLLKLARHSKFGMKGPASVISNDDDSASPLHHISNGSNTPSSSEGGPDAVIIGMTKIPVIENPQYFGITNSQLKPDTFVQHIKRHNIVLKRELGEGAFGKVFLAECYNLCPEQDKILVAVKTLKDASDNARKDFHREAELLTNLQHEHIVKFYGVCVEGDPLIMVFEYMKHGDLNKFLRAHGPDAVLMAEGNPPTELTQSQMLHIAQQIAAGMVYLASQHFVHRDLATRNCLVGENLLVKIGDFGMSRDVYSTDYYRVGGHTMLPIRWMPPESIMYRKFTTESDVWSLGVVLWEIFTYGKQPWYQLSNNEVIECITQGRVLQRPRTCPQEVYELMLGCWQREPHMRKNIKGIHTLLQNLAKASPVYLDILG

inhibition [1]: Active | MRT last [4]: 1.6 h
Structure (SMILES): Cc1nc(NC(=O)N[C@@H]2CCCC[C@H]2O)ccc1Oc1c[nH]c2ncc(Cl)cc12
Activity (MC-38 [2]): 1.71% | Activity (MC-38 [3]): 19.91% | Activity (MC-38 [5]): Active; Lower Tumor Weight Observed Than That Of Plx3397 Treated Group | Activity (BMDM): Active
